Results: the SangsterLogP compilation

Assay: method code SF-GLC,AS, from DOI: 10.1021/jf60192a013, PMID: 4840568

Row | Compound | logP
1 | CCCCCCNP(=O)(OC)SC (configuration not stated) | 1.11
2 | COP(=O)(NC(C)(C)C)SC (configuration not stated) | 0.96
3 | COP(N)(=O)SC (configuration not stated) | -0.66
4 | COP(=O)(NCC(C)C)SC (configuration not stated) | 0.97
5 | CNP(=O)(OC)SC (configuration not stated) | -0.07
6 | CCCCNP(=O)(OC)SC (configuration not stated) | 0.94
7 | CCCNP(=O)(OC)SC (configuration not stated) | 0.65
8 | CCCCCCCCNP(=O)(OC)SC (configuration not stated) | 1.51
9 | CCOP(N)(=O)SCC (configuration not stated) | 0.15
10 | CCNP(=O)(OC)SC (configuration not stated) | 0.07
11 | CCCOP(N)(=O)SCCC (configuration not stated) | 1.23
12 | CCC(C)NP(=O)(OC)SC (configuration not stated) | 0.95
